Reference: US9611275B2 (priority 2012, dated 2017)

Test: Assay for determination of apparent permeability (Papp), bi-directional transport
Conditions: pig, LLC-PK1

SMILES	Papp at 3 h, 1 μM
CO[C@@](C)([C@H]1O[C@@H]2SC(N(C)C)=N[C@@H]2[C@@H](O)[C@@H]1O)C(F)(F)F (single isomer, unassigned) [Example 74]	24.5 ×10⁻⁶ cm/s
CO[C@H]([C@H]1O[C@@H]2SC(N(C)C)=N[C@@H]2[C@@H](O)[C@@H]1O)C(F)(F)F [Example 2, (3aR,5S,6S,7R,7aR)-2-(dimethylamino)-5-((R)-2,2,2-trifluoro-1-methoxyethyl)-5,6,7,7a-tetrahydro-3aH-pyrano[3,2-d]thiazole-6,7-diol]	20.8 ×10⁻⁶ cm/s
CNC1=N[C@@H]2[C@@H](O)[C@H](O)[C@@H]([C@H](Oc3ccccc3)C(F)(F)F)O[C@@H]2S1 [Example 3, (3aR,5S,6S,7R,7aR)-2-(methylamino)-5-((S)-2,2,2-trifluoro-1-phenoxyethyl)-5,6,7,7a-tetrahydro-3aH-pyrano[3,2-d]thiazole-6,7-diol]	28.3 ×10⁻⁶ cm/s
CNC1=N[C@@H]2[C@@H](O)[C@H](O)[C@@H]([C@@H](Oc3ccccc3)C(F)(F)F)O[C@@H]2S1 [Example 4, (3aR,5S,6S,7R,7aR)-2-(methylamino)-5-((R)-2,2,2-trifluoro-1-phenoxyethyl)-5,6,7,7a-tetrahydro-3aH-pyrano[3,2-d]thiazole-6,7-diol]	27.3 ×10⁻⁶ cm/s
CN(C)C1=N[C@@H]2[C@@H](O)[C@H](O)[C@@H]([C@@H](Oc3ccc([N+](=O)[O-])cc3)C(F)(F)F)O[C@@H]2S1 [Example 9, (3aR,5S,6S,7R,7aR)-2-(dimethylamino)-5-((R)-2,2,2-trifluoro-1-(4-nitrophenoxy)ethyl)-5,6,7,7a-tetrahydro-3aH-pyrano[3,2-d]thiazole-6,7-diol]	31.5 ×10⁻⁶ cm/s
CN[C@H]([C@H]1O[C@@H]2SC(N(C)C)=N[C@@H]2[C@@H](O)[C@@H]1O)C(F)(F)F [Example 16, (3aR,5R,6S,7R,7aR)-2-(dimethylamino)-5-((R)-2,2,2-trifluoro-1-(methylamino)ethyl)-5,6,7,7a-tetrahydro-3aH-pyrano[3,2-d]thiazole-6,7-diol]	15.5 ×10⁻⁶ cm/s
C=CCOc1ccc(CO[C@H]([C@H]2O[C@@H]3SC(N(C)C)=N[C@@H]3[C@@H](O)[C@@H]2O)C(F)(F)F)cc1 [Example 20, (3aR,5S,6S,7R,7aR)-5-((R)-1-(4-(allyloxy)benzyloxy)-2,2,2-trifluoroethyl)-2-(dimethylamino)-5,6,7,7a-tetrahydro-3aH-pyrano[3,2-d]thiazole-6,7-diol]	29.8 ×10⁻⁶ cm/s
CCO[C@@H]([C@H]1O[C@@H]2SC(N(C)C)=N[C@@H]2[C@@H](O)[C@@H]1O)C(F)(F)F [Example 22, (3aR,5S,6S,7R,7aR)-2-(dimethylamino)-5-((S)-1-ethoxy-2,2,2-trifluoroethyl)-5,6,7,7a-tetrahydro-3aH-pyrano[3,2-d]thiazole-6,7-diol]	27.2 ×10⁻⁶ cm/s
CCO[C@H]([C@H]1O[C@@H]2SC(N(C)C)=N[C@@H]2[C@@H](O)[C@@H]1O)C(F)(F)F [Example 23, (3aR,5S,6S,7R,7aR)-2-(dimethylamino)-5-((R)-1-ethoxy-2,2,2-trifluoroethyl)-5,6,7,7a-tetrahydro-3aH-pyrano[3,2-d]thiazole-6,7-diol]	23.6 ×10⁻⁶ cm/s
CCCO[C@H]([C@H]1O[C@@H]2SC(N(C)C)=N[C@@H]2[C@@H](O)[C@@H]1O)C(F)(F)F [Example 25, (3aR,5S,6S,7R,7aR)-2-(dimethylamino)-5-((R)-2,2,2-trifluoro-1-propoxyethyl)-5,6,7,7a-tetrahydro-3aH-pyrano[3,2-d]thiazole-6,7-diol]	29.5 ×10⁻⁶ cm/s
CCCCO[C@H]([C@H]1O[C@@H]2SC(N(C)C)=N[C@@H]2[C@@H](O)[C@@H]1O)C(F)(F)F [Example 26, (3aR,5S,6S,7R,7aR)-5-((R)-1-butoxy-2,2,2-trifluoroethyl)-2-(dimethylamino)-5,6,7,7a-tetrahydro-3aH-pyrano[3,2-d]thiazole-6,7-diol]	30.8 ×10⁻⁶ cm/s
CCCCCO[C@H]([C@H]1O[C@@H]2SC(N(C)C)=N[C@@H]2[C@@H](O)[C@@H]1O)C(F)(F)F [Example 27, (3aR,5S,6S,7R,7aR)-2-(dimethylamino)-5-((R)-2,2,2-trifluoro-1-(pentyloxy)ethyl)-5,6,7,7a-tetrahydro-3aH-pyrano[3,2-d]thiazole-6,7-diol]	32 ×10⁻⁶ cm/s
CN(C)C1=N[C@@H]2[C@@H](O)[C@H](O)[C@@H]([C@@H](OCCCF)C(F)(F)F)O[C@@H]2S1 [Example 29, (3aR,5S,6S,7R,7aR)-2-(dimethylamino)-5-((R)-2,2,2-trifluoro-1-(3-fluoropropoxy)ethyl)-5,6,7,7a-tetrahydro-3aH-pyrano[3,2-d]thiazole-6,7-diol]	20.9 ×10⁻⁶ cm/s
CN(C)C1=N[C@@H]2[C@@H](O)[C@H](O)[C@@H]([C@@H](OCCCCF)C(F)(F)F)O[C@@H]2S1 [Example 30, (3aR,5S,6S,7R,7aR)-2-(dimethylamino)-5-((R)-2,2,2-trifluoro-1-(4-fluorobutoxy)ethyl)-5,6,7,7a-tetrahydro-3aH-pyrano[3,2-d]thiazole-6,7-diol]	30.8 ×10⁻⁶ cm/s
CN(C)C1=N[C@@H]2[C@@H](O)[C@H](O)[C@@H]([C@@H](OCC3CCCCC3)C(F)(F)F)O[C@@H]2S1 [Example 35, (3aR,5S,6S,7R,7aR)-5-((R)-1-(cyclohexylmethoxy)-2,2,2-trifluoroethyl)-2-(dimethylamino)-5,6,7,7a-tetrahydro-3aH-pyrano[3,2-d]thiazole-6,7-diol]	33.6 ×10⁻⁶ cm/s
CN(C)C1=N[C@@H]2[C@@H](O)[C@H](O)[C@@H]([C@@H](OCCCc3ccc(F)cc3)C(F)(F)F)O[C@@H]2S1 [Example 36, (3aR,5S,6S,7R,7aR)-2-(dimethylamino)-5-((R)-2,2,2-trifluoro-1-(3-(4-fluorophenyl)propoxy)ethyl)-5,6,7,7a-tetrahydro-3aH-pyrano[3,2-d]thiazole-6,7-diol]	28.1 ×10⁻⁶ cm/s
Cc1ccc(CO[C@H]([C@H]2O[C@@H]3SC(N(C)C)=N[C@@H]3[C@@H](O)[C@@H]2O)C(F)(F)F)cc1 [Example 40, (3aR,5S,6S,7R,7aR)-2-(dimethylamino)-5-((R)-2,2,2-trifluoro-1-(4-methylbenzyloxy)ethy1)-5,6,7,7a-tetrahydro-3aH-pyrano[3,2-d]thiazole-6,7-diol]	31.2 ×10⁻⁶ cm/s
CCc1ccc(CO[C@H]([C@H]2O[C@@H]3SC(N(C)C)=N[C@@H]3[C@@H](O)[C@@H]2O)C(F)(F)F)cc1 [Example 41, (3aR,5S,6S,7R,7aR)-2-(dimethylamino)-5-((R)-1-(4-ethylbenzyloxy)-2,2,2-trifluoroethyl)-5,6,7,7a-tetrahydro-3aH-pyrano[3,2-d]thiazole-6,7-diol]	30.7 ×10⁻⁶ cm/s
CN(C)C1=N[C@@H]2[C@@H](O)[C@H](O)[C@@H]([C@@H](OCc3cccc(F)c3F)C(F)(F)F)O[C@@H]2S1 [Example 46, (3aR,5S,6S,7R,7aR)-5-((R)-1-(2,3-difluorobenzyloxy)-2,2,2-trifluoroethyl)-2-(dimethylamino)-5,6,7,7a-tetrahydro-3aH-pyrano[3,2-d]thiazole-6,7-diol]	34.5 ×10⁻⁶ cm/s
C[C@H](O[C@H]([C@H]1O[C@@H]2SC(N(C)C)=N[C@@H]2[C@@H](O)[C@@H]1O)C(F)(F)F)c1ccccc1 [Example 47, (3aR,5S,6S,7R,7aR)-2-(dimethylamino)-5-((R)-2,2,2-trifluoro-1-((S)-1-phenylethoxy)ethyl)-5,6,7,7a-tetrahydro-3aH-pyrano[3,2-d]thiazole-6,7-diol]	34 ×10⁻⁶ cm/s
COc1ccccc1CO[C@@H]([C@H]1O[C@@H]2SC(N(C)C)=N[C@@H]2[C@@H](O)[C@@H]1O)C(F)(F)F [Example 49, (3aR,5S,6S,7R,7aR)-2-(dimethylamino)-5-((S)-2,2,2-trifluoro-1-(2-mcthoxybenzyloxy)ethyl)-5,6,7,7a-tetrahydro-3aH-pyrano[3,2-d]thiazole-6,7-diol]	29.8 ×10⁻⁶ cm/s
COc1ccccc1CO[C@H]([C@H]1O[C@@H]2SC(N(C)C)=N[C@@H]2[C@@H](O)[C@@H]1O)C(F)(F)F [Example 50, (3aR,5S,6S,7R,7aR)-2-(dimethylamino)-5-((R)-2,2,2-trifluoro-1-(2-methoxybenzyloxy)ethyl)-5,6,7,7a-tetrahydro-3aH-pyrano[3,2-d]thiazole-6,7-diol]	31.5 ×10⁻⁶ cm/s
COc1cccc(CO[C@H]([C@H]2O[C@@H]3SC(N(C)C)=N[C@@H]3[C@@H](O)[C@@H]2O)C(F)(F)F)c1 [Example 51, (3aR,5S,6S,7R,7aR)-2-(dimethylamino)-5-((R)-2,2,2-trifluoro-1-(3-methoxybenzyloxy)ethyl)-5,6,7,7a-tetrahydro-3aH-pyrano[3,2-d]thiazole-6,7-diol]	30.9 ×10⁻⁶ cm/s
COc1ccc(CO[C@@H]([C@H]2O[C@@H]3SC(N(C)C)=N[C@@H]3[C@@H](O)[C@@H]2O)C(F)(F)F)cc1 [Example 53, (3aR,5S,6S,7R,7aR)-2-(dimethylamino)-5-((R)-2,2,2-trifluoro-1-(4-mcthoxybenzyloxy)ethyl)-5,6,7,7a-tetrahydro-3aH-pyrano[3,2-d]thiazole-6,7-diol]	33 ×10⁻⁶ cm/s
COc1ccc(CO[C@H]([C@H]2O[C@@H]3SC(N(C)C)=N[C@@H]3[C@@H](O)[C@@H]2O)C(F)(F)F)cc1C [Example 54, (3aR,5S,6S,7R,7aR)-2-(dimethylamino)-5-((R)-2,2,2-trifluoro-1-(4-methoxy-3-methylbenzyloxy)ethyl)-5,6,7,7a-tetrahydro-3aH-pyrano[3,2-d]thiazole-6,7-diol]	31.3 ×10⁻⁶ cm/s
CCc1cc(CO[C@H]([C@H]2O[C@@H]3SC(N(C)C)=N[C@@H]3[C@@H](O)[C@@H]2O)C(F)(F)F)ccc1OC [Example 59, (3aR,5S,6S,7R,7aR)-2-(dimethylamino)-5-((R)-1-(3-ethyl-4-methoxybenzyloxy)-2,2,2-trifluoroethyl)-5,6,7,7a-tetrahydro-3aH-pyrano[3,2-d]thiazole-6,7-diol]	29.6 ×10⁻⁶ cm/s
COc1c(C)cc(CO[C@H]([C@H]2O[C@@H]3SC(N(C)C)=N[C@@H]3[C@@H](O)[C@@H]2O)C(F)(F)F)cc1C [Example 60, (3aR,5S,6S,7R,7aR)-2-(dimethylamino)-5-((R)-2,2,2-trifluoro-1-(4-methoxy-3,5-dimethylbenzyloxy)ethyl)-5,6,7,7a-tetrahydro-3aH-pyrano[3,2-d]thiazole-6,7-diol]	29 ×10⁻⁶ cm/s
